Test results reported in patent US5472951A, “Stabilizer for phospholipid vesicles” (Chiba Flour Milling Co., Ltd., priority 1992, dated 1995).

Tests used:
Assay type in all cases: physicochemical
[1] = particle diameter of modified vesicles; conditions: for average diameter: ultrasonicator (Example 5 series)
[2] = viscosity of vesicle dispersion on addition of calcium ion (rotating viscometer); conditions: 5 mM calcium chloride
Protocol: The stability of the vesicles was evaluated as below. The precipitate of the vesicles prepared by centrifuge was dispersed again into saline by a vortex mixer. To this sample, calcium chloride (as calcium ion) was added to be 5 mM, and the viscosity of the dispersion was measured with a rotating viscometer (Vismetron VS-AK). The viscosity of 5 cp was not changed by addition of the calcium ion.
To this dispersion, calcium chloride (as calcium ion) was added to be 5 mM, and the viscosity of the dispersion was measured with a rotating viscometer (Vismetron VS-AK).
To this dispersion, calcium chloride (as calcium ion) was added to be 5 mM, and the viscosity of the dispersion was measured with a rotating viscometer (Vismetron VS-AK). The viscosity of 5 cp was not changed by addition of the calcium ion. On the contrary, the dispersion of the vesicles prepared from powdery lipid mixture not containing DACOA (DPPC:cholesterol:distearylphosphatidic acid=10:9:0.9 in molar ratio) aggregated immediately on addition of calcium ion because of negative charge on the surface of the vesicle, causing the viscosity rise up to 11 cp.
The stability of the dispersion of the DOLG-modified vesicles having adjusted particle diameters was evaluated by addition of 5 mM calcium chloride and observing the viscosity change. The viscosity was measured at 37° C. by a rotating viscometer. […] On the contrary, a dispersion of unmodified vesicles prepared from a powdery lipid mixture containing no DOLG (DPPC:cholesterol:stearic acid=7:7:2 in molar ratio) caused immediate aggregation of the vesicles on addition of calcium ion in the same manner as above because of the negative charge on the surface of the vesicle, and the viscosity increased up to 11 cp. Accordingly, the sufficient effect of the DOLG, a vesicle stabilizer of the present invention, was confirmed in inhibiting the aggregation of vesicles by calcium ion.

[3] = introduction ratio into the vesicle (phenol-sulfuric acid method); conditions: 2 mol % modifier; for introduction ratio: 4 °C, 24 hours
Protocol: The ratio of introduction of the stabilizer into the vesicles is determined by treating the dispersion of the vesicles by gel filtration or ultracentrifuge to remove the superfluous stabilizer which has not been introduced into the vesicles, and quantitatively determining saccharide in respective fractions by a phenol-sulfuric acid method. The stabilizer of the present invention, when employed in an amount of from 2 to 10 mol %, is introduced into the vesicles in a ratio of 90% or more.
The stability of the vesicle dispersion which had been passed through the 0.05 μm filter was evaluated by measuring the change of absorbance (turbidity) at 500 nm with time on standing at room temperature by means of a UV-visible light spectrophotometer.
2.4 mg of DOMG prepared in the same manner as in Example 11 was dissolved in 1 ml of chloroform. This solution was mixed with a solution of 100 mg of DPPC in 5 ml of chloroform, thereby DOMG being 2 mol % of DPPC. The solution mixture was evaporated by means of an evaporator to form a thin film on the inside wall of an eggplant-shape flask. Then 10 ml of pure water was added thereto so as to obtain a concentration of 1.0% by weight of the vesicles. The mixture was stirred with glass beads by means of a vortex mixer, and subsequently treated by an extruder to prepare a dispersion of DOMG-modified DPPC vesicles having controlled diameters of particles. A portion of the resulting dispersion was diluted to a fivefold volume with pure water to prepare a dispersion having vesicle concentration of 0.2% by weight.
The two dispersions of the DOMG-modified vesicles having concentrations of 1.0% by weight and 0.2% by weight were left standing at 4° C. for 24 hours, and were ultracentrifuged (300000 G, 60 minutes). The free DOMG in the supernatant was determined by a phenol-sulfuric acid method, and therefrom the ratio of introduction DOMG to the vesicles was calculated.
As the results, the introduction ratios were 94.3%, and 77.0% respectively at the vesicle concentrations of 1.0% by weight and 0.2% by weight. The results are shown in Table 4 together with the results of Comparative Examples 6 and 7 described later in which an oligosaccharide derivative was employed.

[4] = turbidity increase, standing at 4 °C for 24 hours; conditions: for turbidity increase rate relative to unmodified DPPC vesicle dispersion (100%): Table 3 / Example 11 series
[5] = dispersion stability: turbidity increase at 500 nm, standing at 25 °C for 3 days
[6] = aggregation on addition of dextran: turbidity at 800 nm; conditions: 2.5 wt % dextran (MW 40000), DPPC:cholesterol:stearic acid:STEC 7:7:2:2
Protocol: The precipitation of the vesicles was dispersed again to be 5 wt %, and thereto dextran (molecular weight of 40000) was added as a colloid osmotic pressure controller. The stability of the dispersion was observed by determination of turbidity at 800 nm.
The stability of the MPDSPE-modified vesicle was evaluated by adding, to the above dispersion, dextran (molecular weight: 4000) which is a colloid osmotic pressure controller, and measuring the turbidity from the absorbance at 800 nm. […] This proves the aggregation inhibition effect of the MPDSPE of the vesicle stabilizer of the present invention.
The resulting dispersion was treated with a microfluidizer at 2500 psi at 4° C. for 15 minutes to obtain a dispersion of SDSPE-modified vesicles having average particle diameter of 350±95 nm. This dispersion was centrifuged (100000 G, 30 minutes) to obtain a precipitate of vesicles. The precipitate was dispersed again into a solution to be 5% by weight. Occurrence of aggregation of the vesicles was tested by adding dextran (molecular weight 40000) to the dispersion and measuring the turbidity change at 800 nm. […] Therefrom the modification was confirmed to be effective to inhibition of aggregation caused by dextran.
5.0 g of a powdery lipid mixture containing the above STEC (DPPC:cholesterol:stearic acid:STEC=7:7:2:2 in molar ratio) was dispersed in 100 ml of saline, and the dispersion was stirred at 4° C. for 24 hours. The resulting dispersion was treated with a microfluidizer at 2500 psi at 4° C. for 15 minutes. This dispersion was centrifuged (10000 G, 30 minutes) to obtain precipitate of STEC-modified vesicles. The precipitate was dispersed again in to saline to be 5 wt %. The stability of the vesicles was evaluated by adding 2.5 wt % solution of dextran (molecular weight 40000) to the above vesicle layer and measuring the turbidity change at 800 nm. The STEC-modified vesicles caused the turbidity increase of 58% of that of the unmodified vesicles (DPPC:cholesterol:stearic acid=7:7:2 in molar ratio), thereby the inhibition effect of STEC, a vesicle stabilizer of the present invention being confirmed.

[7] = mixed lipid vesicles, 0.2 μm filter by extruder
[8] = DPPC vesicle, 5 mol % modifier (Example 8 series)
[9] = Table 2 / Example 8 series, 5 mol % modifier
[10] = DPPC vesicle, about 5 mol % modifier
[11] = Table 1 / Example 5 series, about 5 mol % modifier

## CCCCCCCC/C=C\CCCCCCCCNC(=O)[C@H](NC(C)=O)[C@@H](O)[C@H](O[C@@H]1O[C@H](CO)[C@@H](O)[C@H](O)[C@H]1NC(C)=O)[C@H](O)CO [DACOA, di-N-acetylchitobiose oleylamine]
[1]; [7]
  average particle diameter: 200 nm
[2]
  viscosity change on addition of calcium ion (in words): not changed
[2]; Vismetron VS-AK
  viscosity of the dispersion with calcium ion: 5 cp

## CCCCCCCCCCCCCCCCCCOCC(COC1O[C@H](CO)[C@@H](O[C@H]2O[C@H](CO)[C@@H](O)[C@H](O)[C@H]2O)[C@H](O)[C@H]1O)OCCCCCCCCCCCCCCCCCC (stereo partly drawn) [DOMG, 1,2-di-octadecyl-O-α(β)-maltosyl-glycerol]
[1]; DPPC vesicle, about 5 mol % modifier, extruder 0.05 μm (Example 11)
  particle diameter: 35±15 nm
[3]; vesicle concentration 0.2 wt %
  introduction ratio: 77.0%
[3]; vesicle concentration 1.0 wt %
  introduction ratio: 94.3%
[4]; 5-20 mol %
  increase of the turbidity depending on amount of modifier (order): 5 mol %>10 mol %>15 mol %>20
[4]; 5 mol % modifier, 24 hours
  vesicle stabilization effect (in words): not so effective
  turbidity increase rate relative to unmodified DPPC vesicle dispersion (100%): 45.5%
[4]; 10 mol % modifier, 24 hours
  turbidity increase rate relative to unmodified DPPC vesicle dispersion (100%): 28.9%
[4]; 15 mol % modifier, 24 hours
  turbidity increase rate relative to unmodified DPPC vesicle dispersion (100%): 16.0%
[4]; 20 mol % modifier, 24 hours
  turbidity increase rate relative to unmodified DPPC vesicle dispersion (100%): 11.2%

## CCCCCCCCCCCCCCCCCCNC(=O)[C@H](O)[C@@H](O)[C@H](O)[C@H](O)CO[C@H]1O[C@H](CO[C@H]2O[C@H](CO[C@H]3O[C@H](CO[C@H]4O[C@H](CO[C@H]5O[C@H](CO)[C@@H](O)[C@H](O)[C@H]5O)[C@@H](O)[C@H](O)[C@H]4O)[C@@H](O)[C@H](O)[C@H]3O)[C@@H](O)[C@H](O)[C@H]2O)[C@@H](O)[C@H](O)[C@H]1O [IHSA, Isomaltohexose stearylamide]
[1]; [7]
  average particle diameter: 200 nm
[2]
  inhibition of aggregation of vesicles by calcium ion (in words): inhibited nearly completely
  viscosity change on addition of calcium ion (in words): not changed at all
[2]; Vismetron VS-AK
  viscosity of the dispersion with calcium ion: 5 cp

## CCCCCCCCCCCCCCCCNC(=O)[C@H](O)[C@@H](O)[C@H](O[C@H]1O[C@H](CO)[C@@H](O)[C@H](O)[C@H]1O)[C@H](O)CO [MCA, maltose cetyl amide]
[1]; [8]
  average particle diameter: 41±19 nm
[1]; DPPC vesicle, 10 mol % modifier (Example 8 series)
  average particle diameter: 35±13 nm
[1]; DPPC vesicle, 15 mol % (MCA also 25 mol %) modifier
  average particle diameter (in words): Nearly the same diameters
[1]; DPPC vesicle, 20 mol % modifier (Example 8 series)
  average particle diameter: 36±10 nm
[5]; 5-25 mol %
  increase of the turbidity depending on amount of modifier (order): 5 mol %>10 mol %>15 mol %>20 mol % ≤25 mol %
[5]; [9]
  turbidity increase rate relative to unmodified DPPC vesicle dispersion (100%): 47.8%
[5]; Table 2 / Example 8 series, 10 mol % modifier
  turbidity increase rate relative to unmodified DPPC vesicle dispersion (100%): 32.5%
[5]; Table 2 / Example 8 series, 15 mol % modifier
  turbidity increase rate relative to unmodified DPPC vesicle dispersion (100%): 19.9%
[5]; Table 2 / Example 8 series, 20 mol % modifier
  turbidity increase rate relative to unmodified DPPC vesicle dispersion (100%): 15.6%
[5]; Table 2 / Example 8 series, 25 mol % modifier
  turbidity increase rate relative to unmodified DPPC vesicle dispersion (100%): 17.2%

## CCCCCCCCCCCCCCCCNC(=O)[C@H](O)[C@@H](O)[C@H](O[C@H]1O[C@H](CO)[C@@H](O[C@H]2O[C@H](CO)[C@@H](O[C@H]3O[C@H](CO)[C@@H](O[C@H]4O[C@H](CO)[C@@H](O)[C@H](O)[C@H]4O)[C@H](O)[C@H]3O)[C@H](O)[C@H]2O)[C@H](O)[C@H]1O)[C@H](O)CO [MPCA, maltopentaose cetyl amide]
[1]; [8]
  average particle diameter: 32±9 nm
[1]; [10]
  average diameter: 32±7 nm
[5]; [11]
  turbidity increase rate relative to unmodified DPPC vesicle dispersion (100%): 6.3%
[5]; [9]
  turbidity increase rate relative to unmodified DPPC vesicle dispersion (100%): 12.7%
[5]; Table 2 / Example 8 series, 5 mol % modifier, listed as MCPA
  turbidity increase rate relative to unmodified DPPC vesicle dispersion (100%): 10.3%
[5]; about 5 mol % modifier
  turbidity rise / aggregation inhibiting effect (in words): little rise in turbidity

## CC(C)CCC[C@@H](C)[C@H]1CC[C@H]2[C@@H]3CC=C4C[C@@H](OCCOCCOCCOCCOC5O[C@H](CO)[C@@H](O[C@@H]6O[C@H](CO)[C@@H](O)[C@H](O)[C@H]6O)[C@H](O)[C@H]5O)CC[C@]4(C)[C@H]3CC[C@]12C (stereo partly shown) [STEC, cellobiosyl tetraethyleneglycosyl cholesterol]
[6]
  turbidity increase on dextran addition relative to unmodified vesicles: 58%

## Dioctadecylmaltopentaosyl glycerol [DOMPG]
[3]
  introduction ratio in comparison with DOMG (in words): low in comparison with that of DOMG
[3]; vesicle concentration 0.2 wt %
  introduction ratio: 70.9%
[3]; vesicle concentration 1.0 wt %
  introduction ratio: 83.2%
[4]; 5 mol % modifier, 24 hours
  turbidity increase rate relative to unmodified DPPC vesicle dispersion (100%): 12.1%

## Maltopentaose dipalmitate [MPDP, reference compound]
[1]; [10]
  average diameter: 38±8 nm
[5]; [11]
  turbidity increase rate relative to unmodified DPPC vesicle dispersion (100%): 65.4%

## Maltopentaose monopalmitate [MPMP, reference compound]
[1]; [8]
  average particle diameter: 34±12 nm
[1]; [10]
  average diameter: 34±12 nm
[5]; [11]
  turbidity increase rate relative to unmodified DPPC vesicle dispersion (100%): 12.7%
[5]; [9]
  turbidity increase rate relative to unmodified DPPC vesicle dispersion (100%): 11.2%
[3]
  introduction ratio in comparison with DOMG (in words): low in comparison with that of DOMG
[3]; vesicle concentration 0.2 wt %
  introduction ratio: 48.5%
[3]; vesicle concentration 1.0 wt %
  introduction ratio: 75.8%
[4]; 5 mol % modifier, 24 hours
  turbidity increase rate relative to unmodified DPPC vesicle dispersion (100%): 13.5%

## dioctadecyl lactosyl glycerol [DOLG]
[2]
  viscosity change on addition of calcium ion (in words): without viscosity increase
[2]; 37 °C, shear rate 1.15 sec^-1
  viscosity of the dispersion with calcium ion: 5 cp
